Assay results published in EP4748840A1, “IMIDAZO[1,2-A]PYRIDINE TYPE IRAK DEGRADATION AGENT AND USE THEREOF” (TAINUORUI (TIANJIN) BIOTECHNOLOGY CO., LTD, priority 2023, dated 2025).

Target: T1, IRAK4 (Homo sapiens, UniProt Q9NWZ3)
T1 construct: expressed in transfected cells; host or cells: THP1 (THP1-HIBiT-IRAK4 engineered line)
T1 sequence (Q9NWZ3 1-460): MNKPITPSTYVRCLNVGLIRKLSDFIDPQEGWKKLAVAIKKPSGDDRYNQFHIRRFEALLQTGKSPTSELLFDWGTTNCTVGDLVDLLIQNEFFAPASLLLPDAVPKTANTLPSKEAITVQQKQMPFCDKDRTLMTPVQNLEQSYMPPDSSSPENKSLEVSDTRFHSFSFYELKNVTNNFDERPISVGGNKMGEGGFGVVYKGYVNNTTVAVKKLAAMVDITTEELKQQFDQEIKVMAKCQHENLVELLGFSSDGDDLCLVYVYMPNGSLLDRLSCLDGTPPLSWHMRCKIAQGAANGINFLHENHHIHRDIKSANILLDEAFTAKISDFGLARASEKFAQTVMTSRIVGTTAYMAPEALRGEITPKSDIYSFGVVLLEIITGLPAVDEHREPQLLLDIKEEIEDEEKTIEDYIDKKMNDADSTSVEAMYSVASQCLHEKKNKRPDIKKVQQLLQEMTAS
Test: HiBiT-based intracellular degradation assay of THP1-HIBiT-IRAK4 cells
Format: cell-based
Details: half-maximal degradation concentration of IRAK4 protein, 24 h incubation
Experimental: HiBiT-based intracellular degradation assay of THP1-HIBiT-IRAK4 cells
THP1-HIBiT-IRAK4 cells were cultured in RPMI 1640 medium supplemented with 10% fetal bovine serum (FBS) and 1% penicillin-streptomycin (PS) (37°C and 5% CO2). The THP1-HIBiT-IRAK4 cells were inoculated in a 384-well plate at 5000 cells/40 µL/well. Compound solutions with different concentrations were added at 40 nL/well and incubated for 24 h at 37°C in 5% CO2. HiBiT lysis detection reagents were added to the wells, the plate was incubated for 30 min at room temperature, and luminescence values were read on Envision. [formula]
The DC50 (half-maximal degradation concentration) of each compound was obtained using XLfit software and the following nonlinear fitting equation: Y = bottom + (top−bottom)/(1+10^(∧)((LogDC50−X)×Hillslope)). [formula]
X denotes a log value of the compound concentration.
Y denotes the degradation rate.
Table 1 lists the results of DC50 values of IRAK4 protein degradation. […]

| DC50 [nM] | Structure (SMILES) |
| --- | --- |
| 3.33 | CC(C)(O)c1cc2nc(C3CCN(CCN4CCC5(CC4)CN(c4ccc6c(c4)C(=O)N(C4CCC(=O)NC4=O)C6=O)C5)CC3)cn2cc1NC(=O)c1cccc(C(F)(F)F)n1 (centres unmarked) [Example 16, N-(2-(1-(2-(2-(2-(2,6-dioxopiperidin-3-yl)-1,3-dioxoisoindolin-5-yl)-2,7-diazaspiro[3.5]nonan-7-yl)ethyl)piperidin-4-yl)-7-(2-hydroxypropan-2-yl)imidazo[1,2-a]pyridin-6-yl)-6-(trifluoromethyl)pyridine-2-carboxamide] |
| 16.3 | COc1cc2nc(C3CCN(CC4CCN(c5ccc6c(c5)C(=O)N(C5CCC(=O)NC5=O)C6=O)CC4)CC3)cn2cc1NC(=O)c1cccc(C(F)(F)F)n1 (centres unmarked) [Example 8, N-(2-(1-((1-(2-(2,6-dioxopiperidin-3-yl)-1,3-dioxoisoindolin-5-yl)piperidin-4-yl)methyl)piperidin-4-yl)-7-methoxyimidazo[1,2-a]pyridin-6-yl)-6-(trifluoromethyl)pyridine-2-carboxamide] |
| 12.8 | CC(C)(O)c1cc2nc(C3CCN(CC4CCN(c5cc6c(cc5F)C(=O)N([C@@H]5CCC(=O)NC5=O)C6=O)CC4)CC3)cn2cc1NC(=O)c1cccc(C(F)(F)F)n1 [Example 25, (R)-N-(2-(1-((1-(2-(2,6-dioxopiperidin-3-yl)-6-fluoro-1,3-dioxoisoindolin-5-yl)piperidin-4-yl)methyl)piperidin-4-yl)-7-(2-hydroxypropan-2-yl)imidazo[1,2-a]pyridin-6-yl)-6-(trifluoromethyl)pyridine-2-carboxamide] |
| 1.05 | COc1cc2nc(C3CCN(CCN4CCN(c5ccc6c(c5)CN(C5CCC(=O)NC5=O)C6=O)CC4)CC3)cn2cc1NC(=O)c1cccc(C(F)(F)F)n1 (centres unmarked) [Example 12, N-(2-(1-(2-(4-(2-(2,6-dioxopiperidin-3-yl)-1-oxoisoindolin-5-yl)piperazin-1-yl)ethyl)piperidin-4-yl)-7-methoxyimidazo[1,2-a]pyridin-6-yl)-6-(trifluoromethyl)pyridine-2-carboxamide] |
| 1.36 | CC(C)(O)c1cc2nc(C3CCN(CC4CCN(c5ccc6c(c5)CN(C5CCC(=O)NC5=O)C6=O)CC4)CC3)cn2cc1NC(=O)c1cccc(C(F)(F)F)n1 (centres unmarked) [Example 7, N-(2-(1-((1-(2-(2,6-dioxopiperidin-3-yl)-1-oxoisoindolin-5-yl)piperidin-4-yl)methyl)piperidin-4-yl)-7-(2-hydroxypropan-2-yl)imidazo[1,2-a]pyridin-6-yl)-6-(trifluoromethyl)pyridine-2-carboxamide] |
| 1.95 | CC(C)(O)c1cc2nc(C3CCN(CCCN4CCN(c5ccc6c(c5)C(=O)N(C5CCC(=O)NC5=O)C6=O)CC4)CC3)cn2cc1NC(=O)c1cccc(C(F)(F)F)n1 (centres unmarked) [Example 19, N-(2-(1-(3-(4-(2-(2,6-dioxopiperidin-3-yl)-1,3-dioxoisoindolin-5-yl)piperazin-1-yl)propyl)piperidin-4-yl)-7-(2-hydroxypropan-2-yl)imidazo[1,2-a]pyridin-6-yl)-6-(trifluoromethyl)pyridine-2-carboxamide] |
| 0.87 | CC(C)(O)c1cc2nc(C3CCN(CCN4CCN(c5ccc6c(c5)C(=O)N(C5CCC(=O)NC5=O)C6=O)CC4)CC3)cn2cc1NC(=O)c1cccc(C(F)(F)F)n1 (centres unmarked) [Example 9, N-(2-(1-(2-(4-(2-(2,6-dioxopiperidin-3-yl)-1,3-dioxoisoindolin-5-yl)piperazin-1-yl)ethyl)piperidin-4-yl)-7-(2-hydroxypropan-2-yl)imidazo[1,2-a]pyridin-6-yl)-6-(trifluoromethyl)pyridine-2-carboxamide] |
| 7.83 | CC(C)(O)c1cc2nc(C3CCN(CC(=O)N4CC5(CCN(c6ccc7c(c6)C(=O)N(C6CCC(=O)NC6=O)C7=O)CC5)C4)CC3)cn2cc1NC(=O)c1cccc(C(F)(F)F)n1 (centres unmarked) [Example 6, N-(2-(1-(2-(7-(2-(2,6-dioxopiperidin-3-yl)-1,3-dioxoisoindolin-5-yl)-2,7-diazaspiro[3.5]nonan-2-yl)-2-oxoethyl)piperidin-4-yl)-7-(2-hydroxypropan-2-yl)imidazo[1,2-a]pyridin-6-yl)-6-(trifluoromethyl)pyridine-2-carboxamide] |
| 5.05 | CC(C)(O)c1cc2nc(C3CCN(CCCC(=O)N4CCN(c5ccc6c(c5)C(=O)N(C5CCC(=O)NC5=O)C6=O)CC4)CC3)cn2cc1NC(=O)c1cccc(C(F)(F)F)n1 (centres unmarked) [Example 4, N-(2-(1-(4-(4-(2-(2,6-dioxopiperidin-3-yl)-1,3-dioxoisoindolin-5-yl)piperazin-1-yl)-4-oxobutyl)piperidin-4-yl)-7-(2-hydroxypropan-2-yl)imidazo[1,2-a]pyridin-6-yl)-6-(trifluoromethyl)pyridine-2-carboxamide] |
| 3.69 | CC(C)(O)c1cc2nc(C3CCN(CC(=O)N4CCC5(CC4)CN(c4ccc6c(c4)C(=O)N(C4CCC(=O)NC4=O)C6=O)C5)CC3)cn2cc1NC(=O)c1cccc(C(F)(F)F)n1 (centres unmarked) [Example 5, N-(2-(1-(2-(2-(2-(2,6-dioxopiperidin-3-yl)-1,3-dioxoisoindolin-5-yl)-2,7-diazaspiro[3.5]nonan-7-yl)-2-oxoethyl)piperidin-4-yl)-7-(2-hydroxypropan-2-yl)imidazo[1,2-a]pyridin-6-yl)-6-(trifluoromethyl)pyridine-2-carboxamide] |
| 1.35 | CC(C)(O)c1cc2nc(C3CCN(C4CN(C5CCN(c6ccc7c(c6)C(=O)N(C6CCC(=O)NC6=O)C7=O)CC5)C4)CC3)cn2cc1NC(=O)c1cccc(C(F)(F)F)n1 (centres unmarked) [Example 20, N-(2-(1-(1-(1-(2-(2,6-dioxopiperidin-3-yl)-1,3-dioxoisoindolin-5-yl)piperidin-4-yl)azetidin-3-yl)piperidin-4-yl)-7-(2-hydroxypropan-2-yl)imidazo[1,2-a]pyridin-6-yl)-6-(trifluoromethyl)pyridine-2-carboxamide] |
| 2.3 | CC(C)(O)c1cc2nc(C3CCN(CCN4CC5(C4)CN(c4ccc6c(c4)C(=O)N(C4CCC(=O)NC4=O)C6=O)C5)CC3)cn2cc1NC(=O)c1cccc(C(F)(F)F)n1 (centres unmarked) [Example 21, N-(2-(1-(2-(6-(2-(2,6-dioxopiperidin-3-yl)-1,3-dioxoisoindolin-5-yl)-2,6-diazaspiro[3.3]heptan-2-yl)ethyl)piperidin-4-yl)-7-(2-hydroxypropan-2-yl)imidazo[1,2-a]pyridin-6-yl)-6-(trifluoromethyl)pyridine-2-carboxamide] |
| 1.33 | COc1cc2nc(C3CCN(CCN4CCN(c5ccc6c(c5)C(=O)N(C5CCC(=O)NC5=O)C6)CC4)CC3)cn2cc1NC(=O)c1cccc(C(F)(F)F)n1 (centres unmarked) [Example 14, N-(2-(1-(2-(4-(2-(2,6-dioxopiperidin-3-yl)-3-oxoisoindolin-5-yl)piperazin-1-yl)ethyl)piperidin-4-yl)-7-methoxyimidazo[1,2-a]pyridin-6-yl)-6-(trifluoromethyl)pyridine-2-carboxamide] |
| 0.64 | CC(C)(O)c1cc2nc(C3CCN(CCN4CCN(c5ccc6c(c5)C(=O)N(C5CCC(=O)NC5=O)C6)CC4)CC3)cn2cc1NC(=O)c1cccc(C(F)(F)F)n1 (centres unmarked) [Example 13, N-(2-(1-(2-(4-(2-(2,6-dioxopiperidin-3-yl)-3-oxoisoindolin-5-yl)piperazin-1-yl)ethyl)piperidin-4-yl)-7-(2-hydroxypropan-2-yl)imidazo[1,2-a]pyridin-6-yl)-6-(trifluoromethyl)pyridine-2-carboxamide] |
| 1.87 | CC(C)(O)c1cc2nc(C3CCN(CC4C5CN(c6ccc7c(c6)C(=O)N(C6CCC(=O)NC6=O)C7=O)CC45)CC3)cn2cc1NC(=O)c1cccc(C(F)(F)F)n1 (centres unmarked) [Example 24, N-(2-(1-((3-(2-(2,6-dioxopiperidin-3-yl)-1,3-dioxoisoindolin-5-yl)-3-azabicyclo[3.1.0]hexan-6-yl)methyl)piperidin-4-yl)-7-(2-hydroxypropan-2-yl)imidazo[1,2-a]pyridin-6-yl)-6-(trifluoromethyl)pyridine-2-carboxamide] |

| Structure (SMILES) | DC50 [nM] |
| --- | --- |
| CC(C)(O)c1cc2nc(C3CCN(CC(=O)N4CCN(c5ccc6c(c5)C(=O)N(C5CCC(=O)NC5=O)C6=O)CC4)CC3)cn2cc1NC(=O)c1cccc(C(F)(F)F)n1 (centres unmarked) [Example 2, N-(2-(1-(2-(4-(2-(2,6-dioxopiperidin-3-yl)-1,3-dioxoisoindolin-5-yl)piperazin-1-yl)-2-oxoethyl)piperidin-4-yl)-7-(2-hydroxypropan-2-yl)imidazo[1,2-a]pyridin-6-yl)-6-(trifluoromethyl) pyridine-2-carboxamide] | 4.46 |
| CC(C)(O)c1cc2nc(C3CCN(CC4CCN(c5cc6c(cc5F)C(=O)N(C5CCC(=O)NC5=O)C6)CC4)CC3)cn2cc1NC(=O)c1cccc(C(F)(F)F)n1 (centres unmarked) [Example 23, N-(2-(1-((1-(2-(2,6-dioxopiperidin-3-yl)-6-fluoro-1-oxoisoindolin-5-yl)piperidin-4-yl)methyl)piperidin-4-yl)-7-(2-hydroxypropan-2-yl)imidazo[1,2-a]pyridin-6-yl)-6-(trifluoromethyl) pyridine-2-carboxamide] | 0.95 |
